According to patent US9174946B2, “Selective FAK inhibitors” (priority 2011, dated 2015):
Where two headings read alike, the source gives them in different places.

Legend:
Y397-FAK phosphorylation = biological target: T1, Y397-FAK phosphorylation (Homo sapiens, UniProt Q05397); assay type: cell-based
T1 construct: endogenous in cells; host or cells: MDA-231-LNA cells

[1] = system: HeyA8, SKOV3ip1, and HeyA8-MDR models; conditions: concomitant administration of TAE226 and docetaxel, all three models; cited from earlier work

T1 sequence (Q05397 whole entry): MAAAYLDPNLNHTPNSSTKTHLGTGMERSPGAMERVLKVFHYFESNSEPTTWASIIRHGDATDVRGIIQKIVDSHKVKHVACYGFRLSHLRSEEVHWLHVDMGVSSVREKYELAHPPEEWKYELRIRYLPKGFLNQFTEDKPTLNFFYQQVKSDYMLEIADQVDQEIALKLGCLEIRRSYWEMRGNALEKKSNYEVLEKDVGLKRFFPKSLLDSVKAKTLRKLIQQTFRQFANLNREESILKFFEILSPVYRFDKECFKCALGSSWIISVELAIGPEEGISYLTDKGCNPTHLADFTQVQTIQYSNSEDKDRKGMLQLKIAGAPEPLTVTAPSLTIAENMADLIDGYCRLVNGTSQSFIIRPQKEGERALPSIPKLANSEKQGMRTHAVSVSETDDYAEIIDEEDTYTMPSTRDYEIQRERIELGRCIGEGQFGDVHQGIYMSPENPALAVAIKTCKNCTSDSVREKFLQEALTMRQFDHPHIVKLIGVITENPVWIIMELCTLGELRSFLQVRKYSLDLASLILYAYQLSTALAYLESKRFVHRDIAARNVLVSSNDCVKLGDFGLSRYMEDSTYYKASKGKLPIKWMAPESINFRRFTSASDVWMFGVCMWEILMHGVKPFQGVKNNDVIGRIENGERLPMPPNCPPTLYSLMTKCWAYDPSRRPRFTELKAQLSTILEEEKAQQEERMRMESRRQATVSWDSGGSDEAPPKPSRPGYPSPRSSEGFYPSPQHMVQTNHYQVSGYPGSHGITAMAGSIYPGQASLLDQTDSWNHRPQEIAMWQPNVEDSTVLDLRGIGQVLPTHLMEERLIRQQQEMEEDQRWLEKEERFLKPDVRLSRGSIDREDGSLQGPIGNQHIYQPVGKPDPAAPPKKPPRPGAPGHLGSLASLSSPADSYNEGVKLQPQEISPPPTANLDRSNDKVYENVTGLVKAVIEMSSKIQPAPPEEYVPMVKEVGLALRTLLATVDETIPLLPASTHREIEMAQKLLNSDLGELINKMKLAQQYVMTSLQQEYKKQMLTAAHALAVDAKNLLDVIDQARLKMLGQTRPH

% response of control at 2 μM (Y397-FAK phosphorylation) | SMILES | other results
116% | NC(=O)Cc1ccccc1CCc1nc(Nc2ccc(C3CCNCC3)cc2OC(F)(F)F)ncc1C(F)(F)F [Compound 10, 2-(2-(2-(2-((4-(Piperidin-4-yl)-2-(trifluoromethoxy)phenyl)amino)-5-(trifluoromethyl)pyrimidin-4yl)ethyl)phenyl)acetamide] | –
117% | CN1CCC(c2ccc(Nc3ncc(C(F)(F)F)c(CCc4ccccc4CC(N)=O)n3)c(OC(F)(F)F)c2)CC1 [Compound 11, 2-(2-(2-(2-((4-(1-Methylpiperidin-4-yl)-2-(trifluoromethoxy)phenyl)amino)-5-(trifluoromethyl)pyrimidin-4-yl)ethyl)phenyl)acetamide] | –
90% | CN1CCC(c2ccc(Nc3ncc(C(F)(F)F)c(CCc4ccccc4CC(N)=O)n3)c(F)c2)CC1 [Compound 13, 2-(2-(2-(2-((2-Fluoro-4-(1-methylpiperidin-4-yl)phenyl)amino)-5-(trifluoromethyl)pyrimidin-4-yl)ethyl)phenyl)acetamide] | –

Continued, compound first:

SMILES | % response of control at 2 μM (Y397-FAK phosphorylation) | other results
CNC(=O)c1ccccc1Nc1nc(Nc2ccc(N3CCOCC3)cc2OC)ncc1Cl [TAE226] | – | reduction of tumour burden [1]: 85-97%
COc1cc(N2CCNCC2)ccc1Nc1ncc(C(F)(F)F)c(CCc2ccccc2CC(N)=O)n1 [Compound 1, 2-(2-(2-(2-((2-Methoxy-4-(piperazin-1-yl)phenyl)amino)-5-(trifluoromethyl)pyrimidin-4-yl)ethyl)phenyl)acetamide] | – | % response of control at 2 μM (Y397-FAK phosphorylation; MDA-231-LNA cells, relative to control compound at 2 μM): 122%
COc1cc(C2CCNCC2)ccc1Nc1ncc(C(F)(F)F)c(CCc2ccccc2CC(N)=O)n1 [Compound 2, 2-(2-(2-(2-((2-Methoxy-4-(piperidin-4-yl)phenyl)amino)-5-(trifluoromethyl)pyrimidin-4-yl)ethyl)phenyl)acetamide] | 91% | –
COc1cc(C2CCN(C)CC2)ccc1Nc1ncc(C(F)(F)F)c(CCc2ccccc2CC(N)=O)n1 [Compound 3, 2-(2-(2-(2-((2-Methoxy-4-(1-methylpiperidin-4-yl)phenyl)amino)-5-(trifluoromethyl)pyrimidin-4-yl)ethyl)phenyl)acetamide] | 102% | –
CCN1CCC(c2ccc(Nc3ncc(C(F)(F)F)c(CCc4ccccc4CC(N)=O)n3)c(OC)c2)CC1 [Compound 4, 2-(2-(2-(2-((4-(1-Ethylpiperidin-4-yl)-2-methoxyphenyl)amino)-5-(trifluoromethyl)pyrimidin-4-yl)ethyl)phenyl)acetamide] | 108% | –
COc1cc(C2CCN(C)CC2)ccc1Nc1ncc(C(F)(F)F)c(CCc2cccc(C(N)=O)c2)n1 [Compound 6, 3-(2-(2-((2-Methoxy-4-(1-methylpiperidin-4-yl)phenyl)amino)-5-(trifluoromethyl)pyrimidin-4-yl)ethyl)benzamide] | 80% | –
